Reference: publication PMC7139703, “Thiopurine Derivative-Induced Fpg/Nei DNA Glycosylase Inhibition: Structural, Dynamic and Functional Insights” (International Journal of Molecular Sciences, 2020)
Read-outs that look alike come from different tables or passages of the source.

Tests used:
LlFpg/DNA complex C1 [1] = target: T1, LlFpg/DNA complex C1 (Lactococcus lactis subsp. cremoris, UniProt P42371); assay: EMSA, Fpg DNA binding to 14-mer [THF:C] duplex, complex C1 (lesion recognition complex, Fpg/DNA 1/1); details: for IC50: 0.1 nM 14-mer [THF:C], preformed complex; for IC50 / number of TXn equivalents per one protein equivalent for 50% inhibition of DNA binding activity, C1: 0.25 nM Fpg; for effect on stability of complex C1 in the presence of TCEP: [1/1] molar ratio TCEP/compound (1 mM each), Figure S6; for number of TXn equivalents per one protein equivalent for 50% inhibition of DNA binding activity, C1: value in parentheses
T1 construct: made in house; host or cells: E. coli BH540 (fpg defective)
Source text: To complement this study, we examined the effect of TXn on the binding of Fpg to a short DNA duplex containing a tetrahydrofuran (THF), a non-cleavable AP site analog. The enzyme specifically recognizes THF and forms a stable abortive complex with DNA [18, 34, 35, 36]. […] A representative titration experiment (with and without TCEP) of the 14-mer [THF:C] Fpg formed two stable complexes with this short DNA probe that were easily observed by EMSA: a high-affinity complex C1 corresponding to the lesion recognition complex (LRC), with nanomolar affinity, and a complex C2 only observed at higher Fpg concentrations. C2 results in C1 titration by a second Fpg molecule. This finding illustrates that the crystal structure of Fpg bound to 8-oxoG-carbanucleotide-containing DNA [38] (Figure S5). The stability of each preformed complex was then examined by EMSA in the presence of 2TX or TXn. […] The enzyme inactivation mediated by 2TX through ZnF oxidation that directly affects the DNA binding properties of the enzyme is also in agreement with this last observation.
Figure 2 The effect of 2TX and TXn on Fpg DNA binding to abasic site-containing DNA. A 14-mer DNA duplex containing a tetrahydrofurane (THF) site as an abasic site analog was incubated with a limiting Fpg concentration (0.25 nM) with and without increasing concentrations of TXn. Incubation mixtures were then analyzed by electrophoretic mobility shift assay (EMSA), as described in the ‘Materials and Methods’. (a) Titration experiments with (+) and without (-) 2 mM tris(2-carboxyethyl)phosphine hydrochloride (TCEP) C1 and C2 are for the [1/1] and [2/1] Fpg/DNA complexes, respectively (see detailed in the text). (b) Fpg DNA binding concentration-dependence for 2TX and the more efficient TXn inhibitors. A representative EMSA autoradiography with 0.25 nM of Fpg alone (lane no) and 0.5, 2.5, 5, 10, 20, 40, 50, 250, 1000 µM is shown in the upper panel. IC50app^B corresponds to the TXn amount needed to halve the C1 complex formation and was extracted from the dose-response curves (lower panel; Table 1).
The DNA binding activity was measured using EMSA [37]. Briefly, 0.1 nM of the 5′-labeled 14-mer [THF:C] (see above) was incubated with the enzyme at 4 °C for 30 min in 25 mM HEPES/NaOH (pH 7.5), 150 mM NaCl, 5% glycerol, 0.1 mg/mL BSA and 8% DMSO. The incubation mixture was then loaded onto a native 10% polyacrylamide gel (Acryl/Bis 19/1) and electrophoresed at 25 V/cm for 90 min at 4 °C. After electrophoresis, the gels were dried and exposed overnight for autoradiography using a Typhoon imager and quantified with ImageQuant software. To evaluate the inhibitor effect of 2TX/TXn on the DNA binding activity of each Fpg/Nei enzyme, we first determined the experimental conditions required to bind 50% of the DNA probes without an inhibitor in the presence of 8% DMSO (limiting enzyme concentration). Under these conditions, we obtained the half-maximal DNA binding 0.25, 7 and 5 nM of Fpg, hNeil1 and mvNei1. We used this limited enzyme concentrations to evaluate the inhibitor effect of 2TX/TXn on the enzyme DNA binding activity. This effect was determined by the addition of the thio-compound in the pre-equilibrium mixture of the enzyme and DNA probe (30 min) and incubated for an additional 30 min at 4 °C. For the best inhibitors of Fpg, a dose-response curve was established from at least three independent experiments and the IC50 was determined (IC50^B, Table 1).

LlFpg = target: T2, LlFpg (Lactococcus lactis subsp. cremoris, UniProt P42371); assay: Enzyme kinetics of 8-oxoG excision by LlFpg in the presence of 2TX (double-reciprocal, Dixon, Cornish-Bowden plots); format: biochemical
T2 construct: made in house; host or cells: E. coli BH540 (fpg defective)
Source text: Kinetic experiments with LlFpg in the presence of 2TX partially support this last hypothesis (Figure S3). Although LlFpg was inhibited by 2TX, as was its E. coli homolog (EcFpg), the raw kinetic data from all the experiments appeared to be very complicated and difficult to interpret. […] In this case, no inhibitory constant (Ki) can be determined. This mechanism (also supported by the inhibition suppression by TCEP, Figure S2) is likely superimposed on other inhibitory mechanisms, a factor that makes it difficult to analyze kinetic data. To clarify, we separately analyzed kinetic data obtained for low and high 2TX concentrations (Figure S3). As expected, we observed a linear dependence of the reciprocal velocity (1/v) as a function of the reciprocal substrate concentrations (1/S) with and without the inhibitor. […] These values compare well with those determined previously for the excision of FapyG and 8-oxoG by EcFpg. […] This value is consistent with an interaction of 2TX in the active site of the enzyme. This inhibitory mechanism has not been previously described for the EcFpg enzyme. […] This mode of inhibition is in agreement with the possibility that 2TX can bind outside the active site on the free and bound enzyme. […]

LlFpg/DNA complex C1 [2] = target: T1, LlFpg/DNA complex C1; assay: EMSA, Fpg DNA binding to 14-mer [THF:C] duplex, complex C1 (lesion recognition complex, Fpg/DNA 1/1); details: pre-incubation of Fpg 20 min at 4 °C; micromolar to millimolar inhibitor
hNeil1 = hNeil1 (Homo sapiens, UniProt Q96FI4); assay: EMSA, hNeil1 DNA binding to THF-containing DNA duplex; details: Figure 4
[3] = DNA binding at 4 °C, read-out: IC50app^B (Fpg DNA binding) C1
[4] = IC50app^B (Fpg DNA binding) C1, DNA binding at 4 °C

T1 sequence (P42371 2-273, one chain of several): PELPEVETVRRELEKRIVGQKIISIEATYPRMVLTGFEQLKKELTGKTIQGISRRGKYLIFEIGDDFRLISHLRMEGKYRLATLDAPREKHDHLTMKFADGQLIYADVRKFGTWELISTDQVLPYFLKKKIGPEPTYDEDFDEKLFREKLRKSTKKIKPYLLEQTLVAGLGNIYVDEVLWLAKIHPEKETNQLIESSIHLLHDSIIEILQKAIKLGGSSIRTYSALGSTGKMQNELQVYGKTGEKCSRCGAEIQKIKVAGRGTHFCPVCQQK
T2 sequence (P42371 2-273): as the sequence (P42371 2-273, one chain of several) above
hNeil1, sequence (Q96FI4 2-290 limits assumed): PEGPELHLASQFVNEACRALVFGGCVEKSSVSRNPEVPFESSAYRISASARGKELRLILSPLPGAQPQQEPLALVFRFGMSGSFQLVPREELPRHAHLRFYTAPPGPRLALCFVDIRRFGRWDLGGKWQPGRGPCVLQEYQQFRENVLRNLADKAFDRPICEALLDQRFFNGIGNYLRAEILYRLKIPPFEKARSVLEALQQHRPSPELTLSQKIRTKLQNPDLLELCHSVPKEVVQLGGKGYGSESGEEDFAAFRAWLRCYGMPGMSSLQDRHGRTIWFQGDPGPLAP

Compound	IC50 (LlFpg/DNA complex C1 [1]; [3]) [µM]	Ki (LlFpg; high 2TX concentrations, uncompetitive, read-out: apparent Ki (Kiu)) [µM]	Ki (LlFpg; low 2TX concentrations, partially competitive, read-out: apparent Ki (Kic)) [µM]	Fpg ability to bind DNA after pre-incubation with inhibitor (LlFpg/DNA complex C1 [2])	effect on stability of complex C1 in the presence of TCEP (LlFpg/DNA complex C1 [1])	number of TXn equivalents per one protein equivalent for 50% inhibition of DNA binding activity, C1 (LlFpg/DNA complex C1 [1])	IC50 (LlFpg/DNA complex C1 [1]; [4]) [µM]	effect on hNeil1 DNA binding activity (hNeil1)
O=c1[nH]c(=S)[nH]c2nc[nH]c12 [Compound 2TX, 2-thioxanthine, reference compound]	113 ± 17	24.9 ± 6.56	2.19 ± 0.56	completely abolished				
FC(F)(F)c1nc(S)c2nc[nH]c2n1 [TX13, 2-trifluoromethyl-6-thiopurine]	6.1 ± 0.5				remained stable	98		
O=c1[nH]c2[nH]c(=S)[nH]c(=O)c2[nH]1 [TX14, 2-thio-6,8-dioxopurine]						100	25.1 ± 2.4	
O=c1[nH]c(=S)[nH]c2[nH]c(=S)[nH]c12 [TX19]	17.1 ± 2.4					68		apparent inhibitory effects
Nc1ncnc2[nH]c(S)nc12 [TX27]					remained stable	177	44.2 ± 8	
